Each structure is given as a SMILES string.

This assay concerns the target T1, rat NaP2b (SLC34A2) (Rattus norvegicus, UniProt Q9JJ09).
T1 construct: host or cells: HEK293
T1 sequence (Q9JJ09 1-695): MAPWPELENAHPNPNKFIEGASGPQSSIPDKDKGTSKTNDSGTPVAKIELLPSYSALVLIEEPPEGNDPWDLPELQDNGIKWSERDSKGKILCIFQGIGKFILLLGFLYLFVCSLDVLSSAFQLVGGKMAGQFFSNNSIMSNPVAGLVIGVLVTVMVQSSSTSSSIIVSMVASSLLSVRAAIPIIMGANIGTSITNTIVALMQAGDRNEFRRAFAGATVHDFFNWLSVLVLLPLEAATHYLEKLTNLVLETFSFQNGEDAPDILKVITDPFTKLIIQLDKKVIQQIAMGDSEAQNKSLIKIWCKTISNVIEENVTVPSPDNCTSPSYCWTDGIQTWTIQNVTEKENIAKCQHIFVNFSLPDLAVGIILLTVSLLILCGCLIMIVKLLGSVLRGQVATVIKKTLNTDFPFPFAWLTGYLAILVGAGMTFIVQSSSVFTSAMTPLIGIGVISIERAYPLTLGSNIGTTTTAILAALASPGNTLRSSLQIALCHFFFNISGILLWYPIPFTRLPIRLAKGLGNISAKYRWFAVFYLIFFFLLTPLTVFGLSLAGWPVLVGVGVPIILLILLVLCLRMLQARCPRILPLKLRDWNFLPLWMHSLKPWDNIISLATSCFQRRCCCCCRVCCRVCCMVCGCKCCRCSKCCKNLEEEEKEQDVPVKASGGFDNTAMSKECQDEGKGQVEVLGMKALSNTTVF
As to the kind of experiment: Inhibition of NaP2b-mediated Pi (33P) uptake in transfected HEK293 cells, rat NaP2b. To be noted: 33P Pi uptake, 0.1 mM phosphate, value given as pIC50 range. Format: cell-based. Put shortly: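 The cells transiently expressed NaP2b after Lipofectamine transfection. Each compound was run in duplicate over twelve concentrations, 0.1 nM–30 uM.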
One may read the IC50 as the concentration that gives 50% inhibition. A high value points to lower potency. For `CN(CCN1CCOCC1)C(=O)c1cccc(C(=O)Nc2ccc(N3CCCCC3)cc2-c2cc(NCc3cccc(C(F)(F)F)c3)ccn2)c1` [Example 104], the IC50 was 10 to 31.6 µM. `C[C@H]1CCCCN1c1ccc(NC(=O)c2cccc(C(=O)N(C)CCN3CCOCC3)c2)c(-c2cc(C(=O)NCc3cccc(C(F)(F)F)c3)ccn2)c1` [Example 105] gave an IC50 of 1 to 7.94 µM. To `CN(CCN1CCOCC1)C(=O)c1cccc(C(=O)Nc2ccc(N3CCCCC3)cc2-c2cc(C(F)(F)CCc3cccc(C(F)(F)F)c3)ccn2)c1` [Example 106] belongs 10 to 31.6 µM. For `CN(CCN1CCOCC1)C(=O)c1cccc(C(=O)Nc2ccc(N3CCC(C)(C)CC3)cc2-c2cc(C(=O)NCc3cccc(C(F)(F)F)c3)ccn2)c1` [Example 108], the IC50 is 10 to 31.6 µM. `CN(CCN1CCOCC1)C(=O)c1cccc(C(=O)Nc2ccc(N3CCCCC3)cc2-c2cc(SCc3ccccc3)ccn2)c1` [Example 109] gave an IC50 of 1 to 7.94 µM. To `CN(CCc1ccccn1)C(=O)c1cccc(C(=O)Nc2ccc(N3CCCCC3)cc2-c2cc(C(=O)NCc3cccc(C(F)(F)F)c3)ccn2)c1` [Example 110] belongs 1 to 7.94 µM. The same measure for `CN(CCN1CCOCC1)C(=O)c1cccc(C(=O)Nc2ccc(N3CC[C@H]4CCCC[C@@H]4C3)cc2-c2cc(C(=O)NCc3cccc(C(F)(F)F)c3)ccn2)c1` [Example 111]: 10 to 31.6 µM; for `O=C(O)CCCC1CCN(C(=O)c2cccc(C(=O)Nc3ccc(N4CCCCC4)cc3-c3cc(C(=O)NCc4cccc(C(F)(F)F)c4)ccn3)c2)CC1` [Example 112]: 1 to 7.94 µM; for `O=C(O)CCCC1CCN(C(=O)CCCC2CCN(C(=O)c3cccc(C(=O)Nc4ccc(N5CCCCC5)cc4-c4cc(C(=O)NCc5cccc(C(F)(F)F)c5)ccn4)c3)CC2)CC1` [Example 113]: 1 to 7.94 µM. In turn, `CN(CCN1CCOCC1)C(=O)c1cccc(C(=O)Nc2ccc(N3CCC[C@H]4CCCC[C@@H]43)cc2-c2cc(C(=O)NCc3cccc(C(F)(F)F)c3)ccn2)c1` [Example 114] had an IC50 of 1 to 7.94 µM. The same measure for `CCCN(CCC)c1ccc(NC(=O)c2cccc(C(=O)N(C)CCN3CCOCC3)c2)c(-c2cc(C(=O)NCc3cccc(C(F)(F)F)c3)ccn2)c1` [Example 116]: 1 to 7.94 µM; for `CN(CCN1CCOCC1)C(=O)c1cccc(C(=O)Nc2ccc(N3CCSCC3)cc2-c2cc(C(=O)NCc3cccc(C(F)(F)F)c3)ccn2)c1` [Example 118]: 1 to 7.94 µM; for `O=C(O)Cc1cccc(SCc2cccc(C(=O)Nc3ccc(Cl)cc3-c3cc(C(=O)NCc4cccc(C(F)(F)F)c4)ccn3)c2)c1` [Example 119]: less than 1 µM. For the compound `CN(C)c1ccc(NC(=O)c2cccc(CSCCC(=O)O)c2)c(-c2cc(C(=O)NCc3cccc(C(F)(F)F)c3)ccn2)c1` [Example 120], the IC50 is 1 to 7.94 µM. Turning to `COc1cc(C(F)(F)F)ccc1CNC(=O)c1ccnc(-c2cc(N3CCCCC3)ccc2NC(=O)c2cccc(C(=O)N(C)CCN3CCOCC3)c2)c1` [Example 121, N1-(2-(4-((2-methoxy-4-(trifluoromethyl)benzyl)carbamoyl)pyridin-2-yl)-4-(piperidin-1-yl)phenyl)-N3-methyl-N3-(2-morpholinoethyl)isophthalamide], the IC50 is 1 to 7.94 µM. To `CN(CCN1CCOCC1)C(=O)c1cccc(C(=O)Nc2ccc(N3CCCCC3)cc2-c2cc(C(=O)NCc3ccccc3OC(F)(F)F)ccn2)c1` [Example 123, N1-(2-(4-((2-(trifluoromethoxy)benzyl)carbamoyl)pyridin-2-yl)-4-(piperidin-1-yl)phenyl)-N3-methyl-N3-(2-morpholinoethyl)isophthalamide] belongs 1 to 7.94 µM; to `COc1ccccc1CNC(=O)c1ccnc(-c2cc(N3CCCCC3)ccc2NC(=O)c2cccc(C(=O)N(C)CCN3CCOCC3)c2)c1` [Example 124, N1-(2-(4-((2-methoxybenzyl)carbamoyl)pyridin-2-yl)-4-(piperidin-1-yl)phenyl)-N3-methyl-N3-(2-morpholinoethyl)isophthalamide], 1 to 7.94 µM; to `COc1ccc(C(F)(F)F)cc1CNC(=O)c1ccnc(-c2cc(N3CCCCC3)ccc2NC(=O)c2cccc(C(=O)N(C)CCN3CCOCC3)c2)c1` [Example 125, N1-(2-(4-((2-methoxy-5-(trifluoromethyl)benzyl)carbamoyl)pyridin-2-yl)-4-(piperidin-1-yl)phenyl)-N3-methyl-N3-(2-morpholinoethyl)isophthalamide], 1 to 7.94 µM. Turning to `CCCCN(C)c1ccc(NC(=O)c2cccc(C(=O)N(C)CCN3CCOCC3)c2)c(-c2cc(C(=O)NCc3cccc(C(F)(F)F)c3)ccn2)c1` [Example 127, N1-(4-(butyl(methyl)amino)-2-(4-(3-(trifluoromethyl)benzylcarbamoyl)pyridin-2-yl)phenyl)-N3-methyl-N3-(2-morpholinoethyl)isophthalamide], the IC50 was 10 to 31.6 µM. To `CCCN(CC)c1ccc(NC(=O)c2cccc(C(=O)N(C)CCN3CCOCC3)c2)c(-c2cc(C(=O)NCc3cccc(C(F)(F)F)c3)ccn2)c1` [Example 128, N1-(2-(4-((3-(trifluoromethyl)benzyl)carbamoyl)pyridin-2-yl)-4-(ethyl(propyl)amino)phenyl)-N3-methyl-N3-(2-morpholinoethyl)isophthalamide] belongs 1 to 7.94 µM; to `CCCN(C)c1ccc(NC(=O)c2cccc(C(=O)N(C)CCN3CCOCC3)c2)c(-c2cc(C(=O)NCc3cccc(C(F)(F)F)c3)ccn2)c1` [Example 129, N^1-methyl-N^3-(4-(methyl(propyl)amino)-2-(4-((3-(trifluoromethyl)benzyl)carbamoyl)pyridin-2-yl)phenyl)-N-(2-morpholinoethyl)isophthalamide], 1 to 7.94 µM; to `CN(CCN1CCOCC1)C(=O)c1cccc(C(=O)Nc2ccc(C(F)(F)F)cc2-c2cc(C(=O)N[C@H]3CCCc4ccccc43)ccn2)c1` [Example 130, (S)—N1-methyl-N1-(2-morpholinoethyl)-N3-(2-(4-(1,2,3,4-tetrahydronaphthalen-1-ylcarbamoyl)pyridin-2-yl)-4-(trifluoromethyl)phenyl)isophthalamide], 1 to 7.94 µM.

In the case of `CN(CCN1CCOCC1)C(=O)c1cccc(C(=O)Nc2ccc(OC3CCCC3)cc2-c2cc(C(=O)N[C@H]3CCCc4ccccc43)ccn2)c1` [Example 133, (S)—N^1-(4-(cyclopentyloxy)-2-(4-((1,2,3,4-tetrahydronaphthalen-1-yl)carbamoyl)pyridin-2-yl)phenyl)-N^3-methyl-N^3-(2-morpholinoethyl)isophthalamide], the IC50 was 1 to 7.94 µM. As for `O=C(O)COc1cccc(SCc2cccc(C(=O)Nc3ccc(N4CCCCC4)cc3-c3cc(C(=O)NCc4cccc(C(F)(F)F)c4)ccn3)c2)c1` [Example 134, 2-(3-(3-(4-(piperidin-1-yl)-2-(4-(3-(trifluoromethyl)benzylcarbamoyl)pyridin-2-yl)phenylcarbamoyl)benzylthio)phenoxy)acetic acid], the IC50 was 1 to 7.94 µM. Compound `CN(CCOCCOCCOCCC(=O)O)C(=O)c1cccc(SCc2cccc(C(=O)Nc3ccc(N4CCCCC4)cc3-c3cc(C(=O)NCc4cccc(C(F)(F)F)c4)ccn3)c2)c1` [Example 135, 3-(2-(2-(2-(N-methyl-3-(3-(4-(piperidin-1-yl)-2-(4-(3-(trifluoromethyl)benzylcarbamoyl)pyridin-2-yl)phenylcarbamoyl)benzylthio)benzamido)ethoxy)ethoxy)ethoxy)propanoic acid] had an IC50 of 1 to 7.94 µM. Take `CN(CCN1CCOCC1)C(=O)Cc1cccc(SCc2cccc(C(=O)Nc3ccc(N4CCCCC4)cc3-c3cc(C(=O)NCc4cccc(C(F)(F)F)c4)ccn3)c2)c1` [Example 136, 2-(2-(3-((3-(2-(methyl(2-morpholinoethyl)amino)-2-oxoethyl)phenylthio)methyl)benzamido)-5-(piperidin-1-yl)phenyl)-N-(3-(trifluoromethyl)benzyl)isonicotinamide]: the IC50 is 1 to 7.94 µM. To `O=C(O)CNC(=O)Cc1cccc(SCc2cccc(C(=O)Nc3ccc(N4CCCCC4)cc3-c3cc(C(=O)NCc4cccc(C(F)(F)F)c4)ccn3)c2)c1` [Example 139] belongs 10 to 31.6 µM; to `O=C(O)CCNC(=O)Cc1cccc(SCc2cccc(C(=O)Nc3ccc(N4CCCCC4)cc3-c3cc(C(=O)NCc4cccc(C(F)(F)F)c4)ccn3)c2)c1` [Example 140], 1 to 7.94 µM. Regarding `O=C(O)CN(CCOCCO)C(=O)CCOCCOCCOCCOCCSCc1cccc(C(=O)Nc2ccc(N3CCCCC3)cc2-c2cc(C(=O)NCc3cccc(C(F)(F)F)c3)ccn2)c1` [Example 145, 18-(2-(2-hydroxyethoxy)ethyl)-17-oxo-1-(3-(4-(piperidin-1-yl)-2-(4-(3-(trifluoromethyl)benzylcarbamoyl)pyridin-2-yl)phenylcarbamoyl)phenyl)-5,8,11,14-tetraoxa-2-thia-18-azaicosan-20-oic acid], the IC50 is 10 to 31.6 µM.
